From the supplement of paper PMC11208160

Test: recombinant UMI read abundance after kanamycin selection (control-corrected) (log10(CPM+1)); higher = more efficient recombination; extreme values may be limits of the assay; sequences stand for … in AGTGCAGAGAAAATCGGCCAGTTTTCTCTGCCTGCAGTCCGCATGCCGTGGGACCCCTTGGGTTCTAACCTGTTGCCTAGATTTATGCAGCGGACTGCCTTTCTCCCAAAGTGATAAACCGG…AGGTTGGTTTCACT; site = the 11-nt donor
Procedure, shortened: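 For the IS621 bridge recombinase, a pooled Escherichia coli screen tested donor and donor-binding-loop pairs. Cells received the pair library together with a target plasmid encoding a fixed target and T7-inducible recombinase, then went onto IPTG (0.07 mM) plus kanamycin or unselected plates in duplicate. After PCR across the donor–target junction and sequencing, recombinant UMI counts were normalized to CPM, averaged, and scaled by control-derived factors. Each value is given as log10(CPM+1).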
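Further: IS621 bridge recombinase in Escherichia coli cells against a fixed T5 target plasmid.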

Point of comparison: “TCCTACTCATGGACCGGTTTTCCCGGTAATCCGTATTTGCA (site TCATACTCTTG)”, “recombinant UMI read abundance (log10)” value 0. Against it:
- TCCACTGCATGGACCGGTTTTCCCGGTAATCCGTATTTGCG (site TCCACCGCTCG) — the same, 0
- TCCACTGCATGGACCGGTTTTCCCGGTAATCCGTATTTGCG (site TCCACGGCTCG) — within 0.2 log units, 0.00658
- TCCACTGCATGGACCGGTTTTCCCGGTAATCCGTATTTGCG (site TCCACTGCTCG) — within 0.2 log units, 0.0111
- TCCAGCACATGGACCGGTTTTCCCGGTAATCCGTATTTGTG (site TCCAGCACTCA) — within 0.2 log units, 0.0248
- TCCAGCGCATGGACCGGTTTTCCCGGTAATCCGTATTTGCG (site TCCAACGCTCG) — the same, 0
- TCCAGCGCATGGACCGGTTTTCCCGGTAATCCGTATTTGCG (site TCCACCGCTCG) — within 0.2 log units, 0.0119
- TCCAGCGCATGGACCGGTTTTCCCGGTAATCCGTATTTGCG (site TCCAGCGCTCG) — within 0.2 log units, 0.0428
- TCCAGCGCATGGACCGGTTTTCCCGGTAATCCGTATTTGCG (site TCCATCGCTCG) — within 0.2 log units, 0.00909
- TCCAGTTCATGGACCGGTTTTCCCGGTAATCCGTATTTGCC (site TCCAATTCTGG) — the same, 0
- TCCAGTTCATGGACCGGTTTTCCCGGTAATCCGTATTTGCC (site TCCACTTCTGG) — the same, 0
- TCCAGTTCATGGACCGGTTTTCCCGGTAATCCGTATTTGCC (site TCCAGTTCTGG) — the same, 0
- TCCAGTTCATGGACCGGTTTTCCCGGTAATCCGTATTTGCC (site TCCATTTCTGG) — the same, 0
- TCCATAACATGGACCGGTTTTCCCGGTAATCCGTATTTGGG (site TCCATAACTCC) — within 0.2 log units, 0.008
- TCCATGCCATGGACCGGTTTTCCCGGTAATCCGTATTTGAT (site TCCATGCCTAT) — the same, 0
- TCCATTCCATGGACCGGTTTTCCCGGTAATCCGTATTTGAT (site TCCATTCCTAT) — the same, 0
- TCCCATACATGGACCGGTTTTCCCGGTAATCCGTATTTGCG (site TCCCATACTCG) — within 0.2 log units, 0.00752
- TCCCATTCATGGACCGGTTTTCCCGGTAATCCGTATTTGCC (site TCCAATTCTGG) — the same, 0
- TCCCATTCATGGACCGGTTTTCCCGGTAATCCGTATTTGCC (site TCCCATTCTGG) — the same, 0
- TCCCATTCATGGACCGGTTTTCCCGGTAATCCGTATTTGCC (site TCCGATTCTGG) — the same, 0
- TCCCATTCATGGACCGGTTTTCCCGGTAATCCGTATTTGCC (site TCCTATTCTGG) — the same, 0
- TCCCCAACATGGACCGGTTTTCCCGGTAATCCGTATTTGTT (site TCCCCAACTAA) — within 0.2 log units, 0.0153
- TCCCGCTCATGGACCGGTTTTCCCGGTAATCCGTATTTGCC (site TCCCGCTCTGG) — the same, 0
- TCCCTGACATGGACCGGTTTTCCCGGTAATCCGTATTTGGA (site TCCCTGACTTC) — within 0.2 log units, 0.0122
- TCCGATTCATGGACCGGTTTTCCCGGTAATCCGTATTTGAG (site TCCGATTCTCT) — within 0.2 log units, 0.00583
- TCCGATTCATGGACCGGTTTTCCCGGTAATCCGTATTTGCC (site TCCAATTCTGG) — the same, 0
- TCCGATTCATGGACCGGTTTTCCCGGTAATCCGTATTTGCC (site TCCCATTCTGG) — the same, 0
- TCCGATTCATGGACCGGTTTTCCCGGTAATCCGTATTTGCC (site TCCGATTCTGG) — the same, 0
- TCCGATTCATGGACCGGTTTTCCCGGTAATCCGTATTTGCC (site TCCTATTCTGG) — the same, 0
- TCCGCAGCATGGACCGGTTTTCCCGGTAATCCGTATTTGAA (site TCCGCAGCTTT) — within 0.2 log units, 0.0198
- TCCGCATCATGGACCGGTTTTCCCGGTAATCCGTATTTGGG (site TCCGCATCTCC) — within 0.2 log units, 0.00533
- TCCGCGACATGGACCGGTTTTCCCGGTAATCCGTATTTGTA (site TCCGCGACTTA) — within 0.2 log units, 0.0159
- TCCGCTACATGGACCGGTTTTCCCGGTAATCCGTATTTGTC (site TCCGCTACTGA) — the same, 0
- TCCGGGCCATGGACCGGTTTTCCCGGTAATCCGTATTTGGG (site TCCGGGCCTCC) — within 0.2 log units, 0.0269
- TCCTACGCATGGACCGGTTTTCCCGGTAATCCGTATTTGAA (site TCCTACGCTTT) — within 0.2 log units, 0.0256
- TCCTACTCATGGACCGGTTTTCCCGGTAATCCGTATTTGCA (site TCCTACTCTTG) — the same, 0
- TCCTACTCATGGACCGGTTTTCCCGGTAATCCGTATTTGCA (site TCGTACTCTTG) — the same, 0
- TCCTACTCATGGACCGGTTTTCCCGGTAATCCGTATTTGCA (site TCTTACTCTTG) — the same, 0
- TCCTAGGCATGGACCGGTTTTCCCGGTAATCCGTATTTGGT (site TACTAGGCTAC) — within 0.2 log units, 0.0272
- TCCTAGGCATGGACCGGTTTTCCCGGTAATCCGTATTTGGT (site TCCTAGGCTAC) — within 0.2 log units, 0.0125
- TCCTAGGCATGGACCGGTTTTCCCGGTAATCCGTATTTGGT (site TGCTAGGCTAC) — within 0.2 log units, 0.0178
- TCCTAGGCATGGACCGGTTTTCCCGGTAATCCGTATTTGGT (site TTCTAGGCTAC) — within 0.2 log units, 0.0363
- TCCTGCCCATGGACCGGTTTTCCCGGTAATCCGTATTTGCT (site TCCTGCCCTAG) — the same, 0
- TCCTGGCCATGGACCGGTTTTCCCGGTAATCCGTATTTGTG (site TCCTGGCCTCA) — within 0.2 log units, 0.00405
- TCCTGTTCATGGACCGGTTTTCCCGGTAATCCGTATTTGTC (site TCCTGTTCTGA) — the same, 0
- TCCTTCTCATGGACCGGTTTTCCCGGTAATCCGTATTTGGG (site ACCTTCTCTCC) — within 0.2 log units, 0.0101
- TCCTTCTCATGGACCGGTTTTCCCGGTAATCCGTATTTGGG (site CCCTTCTCTCC) — within 0.2 log units, 0.00366
- TCCTTCTCATGGACCGGTTTTCCCGGTAATCCGTATTTGGG (site GCCTTCTCTCC) — within 0.2 log units, 0.104
- TCCTTCTCATGGACCGGTTTTCCCGGTAATCCGTATTTGGG (site TCCTTCTCTCC) — within 0.2 log units, 0.0162
- TCCTTTACATGGACCGGTTTTCCCGGTAATCCGTATTTGTT (site TCCTTTACTAA) — within 0.2 log units, 0.0163
- TCGAACGCATGGACCGGTTTTCCCGGTAATCCGTATTTGCG (site TCGAACGCTCG) — within 0.2 log units, 0.00434
- TCGAAGACATGGACCGGTTTTCCCGGTAATCCGTATTTGCA (site AGGAAGACTTG) — within 0.2 log units, 0.13
- TCGAAGACATGGACCGGTTTTCCCGGTAATCCGTATTTGCA (site TCGAAGACTTG) — higher, 1.88
- TCGAATACATGGACCGGTTTTCCCGGTAATCCGTATTTGCA (site TAGAATACTTG) — higher, 0.211
- TCGAATACATGGACCGGTTTTCCCGGTAATCCGTATTTGCA (site TCGAATACTTG) — the same, 0
- TCGAATACATGGACCGGTTTTCCCGGTAATCCGTATTTGCA (site TGGAATACTTG) — within 0.2 log units, 0.0214
- TCGAATACATGGACCGGTTTTCCCGGTAATCCGTATTTGCA (site TTGAATACTTG) — the same, 0
- TCGAATCCATGGACCGGTTTTCCCGGTAATCCGTATTTGAG (site TCGAATCCTCT) — higher, 0.516
- TCGACACCATGGACCGGTTTTCCCGGTAATCCGTATTTGGA (site TCGACACCTTC) — within 0.2 log units, 0.0336
- TCGACTTCATGGACCGGTTTTCCCGGTAATCCGTATTTGTG (site TCGACTTCTCA) — the same, 0
- TCGATTACATGGACCGGTTTTCCCGGTAATCCGTATTTGGA (site TCGATTACTTC) — higher, 0.277
- TCGCACACATGGACCGGTTTTCCCGGTAATCCGTATTTGCG (site TCGCACACTCG) — within 0.2 log units, 0.00409
- TCGCCTACATGGACCGGTTTTCCCGGTAATCCGTATTTGTG (site TCGCCTACTCA) — within 0.2 log units, 0.00919
- TCGGCTACATGGACCGGTTTTCCCGGTAATCCGTATTTGCC (site TCGGCTACTGG) — the same, 0
- TCGGGCGCATGGACCGGTTTTCCCGGTAATCCGTATTTGTC (site TCGGGCGCTGA) — higher, 2.19
- TCGGGTGCATGGACCGGTTTTCCCGGTAATCCGTATTTGGA (site TCGGGTGCTTC) — within 0.2 log units, 0.157
- TCGGTTACATGGACCGGTTTTCCCGGTAATCCGTATTTGTT (site TCGGTTACTAA) — higher, 0.835
- TCGTACTCATGGACCGGTTTTCCCGGTAATCCGTATTTGCA (site TCATACTCTTG) — higher, 2.44
- TCGTACTCATGGACCGGTTTTCCCGGTAATCCGTATTTGCA (site TCCTACTCTTG) — higher, 2.28
- TCGTACTCATGGACCGGTTTTCCCGGTAATCCGTATTTGCA (site TCGTACTCTTG) — higher, 2.38
- TCGTACTCATGGACCGGTTTTCCCGGTAATCCGTATTTGCA (site TCTTACTCTTG) — higher, 2.29
- TCGTCATCATGGACCGGTTTTCCCGGTAATCCGTATTTGAC (site TCGTCATCTGT) — the same, 0
- TCGTCGCCATGGACCGGTTTTCCCGGTAATCCGTATTTGCA (site TCGTCGCCTTG) — within 0.2 log units, 0.00504
- TCGTTAGCATGGACCGGTTTTCCCGGTAATCCGTATTTGTG (site ACGTTAGCTCA) — within 0.2 log units, 0.00928
- TCGTTAGCATGGACCGGTTTTCCCGGTAATCCGTATTTGTG (site CCGTTAGCTCA) — the same, 0
